Source: ChEMBL document CHEMBL1128467, “Novel, potent, and selective 5-HT3 receptor antagonists based on the arylpiperazine skeleton: synthesis, structure, biological activity, and comparative molecular field analysis studies” (J Med Chem, 1995)
pKi: −log10 of the molar value.

How the values were obtained:
[1] = target: T1, 5-hydroxytryptamine receptor 2A (Rattus norvegicus, UniProt P14842); settings: for pKi: read-out: Ki
[2] = target: T2, Serotonin 3 (5-HT3) receptor (Rattus norvegicus, UniProt P35563+Q9JJ16); assay: Binding affinity for 5-hydroxytryptamine 3 receptor from rat cortex using [3H]BRL-43694 as radioligand
T2 sequence (P35563 whole entry): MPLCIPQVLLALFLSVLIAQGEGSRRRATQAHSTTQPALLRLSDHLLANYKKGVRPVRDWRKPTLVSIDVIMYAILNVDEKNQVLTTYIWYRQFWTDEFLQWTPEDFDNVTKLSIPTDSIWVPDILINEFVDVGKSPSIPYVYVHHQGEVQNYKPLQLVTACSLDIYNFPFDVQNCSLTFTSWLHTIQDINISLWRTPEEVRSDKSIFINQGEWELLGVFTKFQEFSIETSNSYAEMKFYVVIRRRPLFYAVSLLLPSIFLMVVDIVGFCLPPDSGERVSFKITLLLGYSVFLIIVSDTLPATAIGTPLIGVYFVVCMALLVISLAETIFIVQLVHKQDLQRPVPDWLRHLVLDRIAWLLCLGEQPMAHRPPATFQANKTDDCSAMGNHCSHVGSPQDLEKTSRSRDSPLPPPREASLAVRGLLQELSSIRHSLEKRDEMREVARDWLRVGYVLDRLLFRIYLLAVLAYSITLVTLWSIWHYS
T2 sequence (Q9JJ16 whole entry): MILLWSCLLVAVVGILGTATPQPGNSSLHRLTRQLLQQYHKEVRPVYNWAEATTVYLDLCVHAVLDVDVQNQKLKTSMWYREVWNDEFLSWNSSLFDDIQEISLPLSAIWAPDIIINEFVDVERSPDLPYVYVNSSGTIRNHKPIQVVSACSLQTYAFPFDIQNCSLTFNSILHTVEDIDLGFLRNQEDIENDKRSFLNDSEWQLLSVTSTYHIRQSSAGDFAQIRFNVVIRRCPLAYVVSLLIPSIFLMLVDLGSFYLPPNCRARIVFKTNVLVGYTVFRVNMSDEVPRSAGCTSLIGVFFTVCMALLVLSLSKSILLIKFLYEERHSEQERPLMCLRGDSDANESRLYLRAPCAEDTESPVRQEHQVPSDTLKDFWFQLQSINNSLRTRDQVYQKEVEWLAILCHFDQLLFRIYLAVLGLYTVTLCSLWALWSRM

[3] = target: T3, 5-hydroxytryptamine receptor 1B (Rattus norvegicus, UniProt P28564); assay type: tissue-based, Striatum
T3 sequence (P28564 whole entry): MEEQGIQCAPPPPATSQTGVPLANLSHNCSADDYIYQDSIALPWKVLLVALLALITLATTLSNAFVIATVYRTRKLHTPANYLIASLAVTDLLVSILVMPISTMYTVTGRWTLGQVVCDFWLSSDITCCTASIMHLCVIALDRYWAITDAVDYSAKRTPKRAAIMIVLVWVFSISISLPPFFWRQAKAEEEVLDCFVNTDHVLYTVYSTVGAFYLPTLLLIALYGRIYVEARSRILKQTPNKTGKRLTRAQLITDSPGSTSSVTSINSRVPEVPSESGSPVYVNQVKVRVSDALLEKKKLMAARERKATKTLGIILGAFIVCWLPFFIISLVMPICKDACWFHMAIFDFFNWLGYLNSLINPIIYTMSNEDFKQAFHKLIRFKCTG

[4] = target: 5-hydroxytryptamine receptor 2C (Sus scrofa); assay: The compound was tested for their binding affinity towards 5-hydroxytryptamine 2C receptor
[5] = target: T4, Sodium-dependent serotonin transporter (Rattus norvegicus, UniProt P31652)
T4 sequence (P31652 whole entry): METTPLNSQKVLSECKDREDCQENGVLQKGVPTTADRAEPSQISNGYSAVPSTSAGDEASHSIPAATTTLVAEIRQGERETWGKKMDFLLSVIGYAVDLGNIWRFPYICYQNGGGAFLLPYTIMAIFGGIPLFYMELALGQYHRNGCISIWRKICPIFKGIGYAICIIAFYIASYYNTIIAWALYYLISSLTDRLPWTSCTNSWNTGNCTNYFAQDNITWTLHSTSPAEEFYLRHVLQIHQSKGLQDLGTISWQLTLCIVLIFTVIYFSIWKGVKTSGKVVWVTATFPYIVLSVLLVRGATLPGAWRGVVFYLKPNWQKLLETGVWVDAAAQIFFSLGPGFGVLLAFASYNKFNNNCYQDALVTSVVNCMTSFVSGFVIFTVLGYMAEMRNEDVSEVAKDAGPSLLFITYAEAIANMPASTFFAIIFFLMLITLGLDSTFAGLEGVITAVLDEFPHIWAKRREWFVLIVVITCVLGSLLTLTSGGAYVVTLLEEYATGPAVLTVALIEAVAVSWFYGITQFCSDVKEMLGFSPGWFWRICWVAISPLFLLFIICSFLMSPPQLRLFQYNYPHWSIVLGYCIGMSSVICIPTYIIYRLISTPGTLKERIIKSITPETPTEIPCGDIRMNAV

[6] = target: T5, 5-hydroxytryptamine receptor 1A (Rattus norvegicus, UniProt P19327); assay type: tissue-based, Hippocampus
T5 sequence (P19327 whole entry): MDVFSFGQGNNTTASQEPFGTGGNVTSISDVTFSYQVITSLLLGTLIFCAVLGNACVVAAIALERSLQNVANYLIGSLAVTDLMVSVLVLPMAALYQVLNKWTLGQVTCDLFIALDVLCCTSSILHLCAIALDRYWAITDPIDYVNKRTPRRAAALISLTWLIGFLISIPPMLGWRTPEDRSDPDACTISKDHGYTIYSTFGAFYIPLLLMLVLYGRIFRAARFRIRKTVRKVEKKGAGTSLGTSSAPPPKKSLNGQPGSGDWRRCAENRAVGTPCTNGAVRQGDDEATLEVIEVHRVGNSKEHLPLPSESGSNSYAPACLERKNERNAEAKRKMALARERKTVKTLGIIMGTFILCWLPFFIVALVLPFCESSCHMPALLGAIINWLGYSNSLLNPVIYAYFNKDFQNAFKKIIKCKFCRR

[7] = test system: 5-hydroxytryptamine receptor 2C (Sus scrofa)
[8] = target: T3, 5-hydroxytryptamine receptor 1B; assay: The compound was tested for their binding affinity towards 5-hydroxytryptamine 1B receptor from rat striatum using [3H]5-HT as radioligand; Nonactive at 10 uM
[9] = target: T1, 5-hydroxytryptamine receptor 2A; assay: The compound was tested for its binding affinity towards 5-hydroxytryptamine 2A receptor from rat cortex using [3H]-ketanserin as radioligand; Nonactive at 10 uM
[10] = target: T6, 5-hydroxytryptamine receptor 4 (Cavia porcellus, UniProt O70528); assay: The compound was tested for their binding affinity towards 5-hydroxytryptamine 4 receptor from guinea pig striatum using [3H]GR-113808 as radioligand.
T6 sequence (O70528 whole entry): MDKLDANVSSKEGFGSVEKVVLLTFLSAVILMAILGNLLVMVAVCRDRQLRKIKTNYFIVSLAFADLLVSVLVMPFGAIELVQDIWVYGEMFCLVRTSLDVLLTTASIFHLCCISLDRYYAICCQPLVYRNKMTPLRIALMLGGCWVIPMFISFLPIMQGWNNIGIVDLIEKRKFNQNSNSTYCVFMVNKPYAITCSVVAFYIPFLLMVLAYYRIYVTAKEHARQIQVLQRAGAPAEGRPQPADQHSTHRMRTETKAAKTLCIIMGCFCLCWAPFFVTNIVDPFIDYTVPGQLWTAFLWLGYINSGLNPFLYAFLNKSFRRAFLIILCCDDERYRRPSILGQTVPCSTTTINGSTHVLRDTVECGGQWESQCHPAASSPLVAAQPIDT

[11] = target: T3, 5-hydroxytryptamine receptor 1B; assay: The compound was tested for their binding affinity towards 5-hydroxytryptamine 1B receptor from rat striatum using [3H]5-HT as radioligand
[12] = target: T6, 5-hydroxytryptamine receptor 4
[13] = target: T2, Serotonin 3 (5-HT3) receptor; assay: The compound was tested for its binding affinity towards 5-hydroxytryptamine 3 receptor from rat cortex using [3H]BRL-43694 as radioligand; NA means Not active
[14] = test system: 5-hydroxytryptamine receptor 2C (Sus scrofa); assay: The compound was tested for their binding affinity towards 5-hydroxytryptamine 2C receptor from pig cortex using [3H]mesulergine as radioligand; Nonactive at 10 uM
[15] = target: T6, 5-hydroxytryptamine receptor 4; assay: Displacement of [3H]-GR113808 from 5-HT4 receptor of guinea pig striatum
[16] = target: T3, 5-hydroxytryptamine receptor 1B; assay: The compound was tested for their binding affinity towards 5-hydroxytryptamine 1B receptor from rat striatum using [3H]5-HT as radioligand.
[17] = test system: 5-hydroxytryptamine receptor 2C (Sus scrofa); assay: The compound was tested for their binding affinity towards 5-hydroxytryptamine 2C receptor using [3H]mesulergine as radioligand; Nonactive at 10 uM
[18] = target: T4, Sodium-dependent serotonin transporter; assay: Effect of compound on Serotonin transporter uptake from rat cortex using [3H]citalopram as radioligand
[19] = target: T6, 5-hydroxytryptamine receptor 4; assay: The compound was tested for their binding affinity towards 5-hydroxytryptamine 4 receptor from guinea pig striatum using [3H]GR-113808 as radioligand; Nonactive at 10 uM
[20] = target: T2, Serotonin 3 (5-HT3) receptor; assay: The compound was tested for their binding affinity towards 5-hydroxytryptamine 3 receptor; Nonactive at 10 uM; assay type: protein-complex assay
[21] = target: T1, 5-hydroxytryptamine receptor 2A; assay: The compound was tested for its binding affinity towards 5-hydroxytryptamine 2A receptor from rat cortex using [3H]ketanserin as radioligand.; Nonactive at 10 uM
[22] = target: T4, Sodium-dependent serotonin transporter; assay: Effect of compound on Serotonin transporter uptake from rat cortex using [3H]citalopram as radioligand; Nonactive at 10 uM

T1 sequence (P14842 whole entry): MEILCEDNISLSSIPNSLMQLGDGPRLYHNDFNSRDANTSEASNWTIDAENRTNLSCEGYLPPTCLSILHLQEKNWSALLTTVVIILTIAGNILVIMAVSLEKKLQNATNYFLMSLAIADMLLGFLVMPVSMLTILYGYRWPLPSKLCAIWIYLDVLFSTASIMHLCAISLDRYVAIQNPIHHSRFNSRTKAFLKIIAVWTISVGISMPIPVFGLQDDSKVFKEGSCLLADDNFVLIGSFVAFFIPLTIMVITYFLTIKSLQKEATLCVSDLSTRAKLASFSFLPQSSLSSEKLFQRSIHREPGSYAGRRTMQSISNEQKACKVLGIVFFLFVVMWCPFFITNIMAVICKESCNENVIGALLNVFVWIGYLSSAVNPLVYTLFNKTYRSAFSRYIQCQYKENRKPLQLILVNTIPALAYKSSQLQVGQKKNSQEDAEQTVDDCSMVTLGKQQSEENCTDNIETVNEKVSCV

| SMILES | pKi [1] | pKi [2] | Ki [3] | Ki [5] | Ki [6] | Ki [7] | other results |
| --- | --- | --- | --- | --- | --- | --- | --- |
| COc1cc2c(N3CCN(C)CC3)nc3ccccc3c2c2ccccc12 | 6.62 | 7.38 | Not Active | – | – | – | pKi [4]: 5.64 |
| CCN1CCN(c2nc3ccccc3c3c2ccc2ccccc23)CC1 | 6.19 | 7.79 | Not Active | Not Active | Not Active | Not Active | – |
| CCN1CCN(c2nc3ccccc3c3c2cc(OC)c2ccccc23)CC1 | 6.16 | 6.66 | Not Active | – | – | Not Active | – |
| CCN1CCN(c2nc3ccccc3c3c2CCOc2ccccc2-3)CC1 | – | – | – | – | Not Active | – | Ki [8]: Not Active; Ki [9]: Not Active |
| CN1CCN(c2nc3ccccc3c3c2oc2ccccc23)CC1 | 6.35 | 7.90 | Not Active | Not Active | Not Active | Not Active | pKi ([10]; read-out: Ki): 5.16 |
| COc1cc2c(N3CCNCC3)nc3ccccc3c2c2ccccc12 | 5.96 | 7.18 | Not Active | Not Active | Not Active | Not Active | – |
| CN(C)CCSc1nc2ccccc2c2c1CCOc1ccccc1-2 | 5.55 | 7.34 | – | Not Active | Not Active | Not Active | pKi [11]: 5.89 |
| CN1CCN(c2nc3ccccc3c3c2COc2ccccc2-3)CC1 | 5.85 | 8.80 | Not Active | Not Active | Not Active | Not Active | Ki [12]: Not Active |
| COc1cc2c(SCCN(C)C)nc3ccccc3c2c2ccccc12 | – | – | Not Active | Not Active | Not Active | Not Active | Ki [1]: Not Active; Ki [13]: Not Active |
| CN1CCN(c2nc3ccccc3c3c2ccc2ccccc23)CC1 | 6.04 | 8.02 | Not Active | Not Active | Not Active | – | Ki [10]: Not Active; Ki [14]: Not Active |
| CN1CCN(c2nc3ccccc3c3c2CCc2ccccc2-3)CC1 | 6.40 | 8.46 | – | Not Active | Not Active | – | Ki [8]: Not Active; pKi [15]: 5.18; pKi [4]: 5.14 |
| c1ccc2c(c1)nc(N1CCNCC1)c1oc3ccccc3c12 | 5.92 | 7.49 | – | Not Active | Not Active | – | pKi [16]: 6.55; Ki [17]: Not Active |
| c1ccc2c(c1)OCCc1c(N3CCNCC3)nc3ccccc3c1-2 | 5.49 | – | – | – | Not Active | – | pKi [18]: 6.48; pKi [11]: 6.38 |
| c1ccc2c(c1)ccc1c(N3CCNCC3)nc3ccccc3c12 | 5.96 | 6.89 | Not Active | Not Active | Not Active | Not Active | – |
| CCN1CCN(c2nc3ccccc3c3c2COc2ccccc2-3)CC1 | 5.96 | 7.27 | Not Active | Not Active | Not Active | Not Active | – |
| CN1CCN(c2nc3ccccc3c3c2CCOc2ccccc2-3)CC1 | 5.62 | – | Not Active | – | Not Active | – | Ki [19]: Not Active |
| c1ccc2c(c1)CCc1c(N3CCNCC3)nc3ccccc3c1-2 | 6.19 | 8.27 | Not Active | – | Not Active | Not Active | pKi [18]: 5.59 |
| CN(C)CCSc1nc2ccccc2c2c1ccc1ccccc12 | 5.62 | – | Not Active | Not Active | Not Active | Not Active | Ki [20]: Not Active |
| CN(C)CCSc1nc2ccccc2c2c1COc1ccccc1-2 | 5.74 | – | Not Active | Not Active | Not Active | Not Active | Ki [20]: Not Active |
| CN(C)CCSc1nc2ccccc2c2c1CCc1ccccc1-2 | 6.03 | – | – | – | Not Active | Not Active | Ki [8]: Not Active; Ki [20]: Not Active |
| CN(C)CCSc1nc2ccccc2c2c1oc1ccccc12 | – | 6.39 | Not Active | Not Active | Not Active | Not Active | Ki [21]: Not Active |
| CCN1CCN(c2nc3ccccc3c3c2oc2ccccc23)CC1 | 6.28 | 7.28 | Not Active | – | Not Active | Not Active | Ki [22]: Not Active |
| CCN1CCN(c2nc3ccccc3c3c2CCc2ccccc2-3)CC1 | 6.22 | 8.10 | Not Active | Not Active | Not Active | Not Active | – |
| c1ccc2c(c1)OCc1c(N3CCNCC3)nc3ccccc3c1-2 | 5.55 | 7.94 | Not Active | – | Not Active | Not Active | pKi [18]: 6.44 |
| c1ccc2c(CCC3CCNCC3)c[nH]c2c1 [INDALPINE] | – | – | – | – | – | – | pKi [18]: 8.70 |
| c1ccc2nc(N3CCNCC3)ccc2c1 [QUIPAZINE] | 6.89 | 8.92 | – | – | – | – | Ki [12]: Not Active; pKi [18]: 7.37; pKi [11]: 6.68 |
